{
  "source": "patent US6605627B2",
  "about": "“Modulators of peroxisome proliferator activated receptor-gamma, and methods for the use thereof” (The Salk Insitute for Biological Studies, priority 1999, dated 2003)",
  "molecular_target": "T1, GAL4-PPARγ fusion protein (Mus musculus, UniProt P37238)",
  "T1 construct": "expressed in transfected cells; host or cells: CV-1 cells",
  "T1 sequence (P37238 163-475 isoform P37238-2)": "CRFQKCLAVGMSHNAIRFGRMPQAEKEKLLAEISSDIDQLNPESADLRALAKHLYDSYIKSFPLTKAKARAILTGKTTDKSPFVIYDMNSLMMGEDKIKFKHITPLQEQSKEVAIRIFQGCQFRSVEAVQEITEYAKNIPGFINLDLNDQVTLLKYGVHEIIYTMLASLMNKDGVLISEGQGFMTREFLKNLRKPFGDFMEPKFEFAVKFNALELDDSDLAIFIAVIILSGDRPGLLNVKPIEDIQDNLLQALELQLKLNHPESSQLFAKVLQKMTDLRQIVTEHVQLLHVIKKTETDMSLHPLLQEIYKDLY",
  "test": "Screening assay for PPAR-γ antagonists (GAL4-PPARγ luciferase reporter in CV-1 cells)",
  "type": "cell-based",
  "details": "CV-1 cells co-transfected with CMX-GAL-PPARγ and pTK-MH100x4-LUC; test compound alone or with agonist 200 nM BRL 49653; FIG. 1",
  "procedure": "Effector plasmid, reporter plasmid, and β-galactosidase control plasmid are co-transfected into CV-1 cells at a ratio of about 1:3:5, using a liposome-mediated method, employing N-{2-(2,3)-dioleoyloxy)propyl-N,N,N-trimethyl ammonium methyl sulfate} (i.e., DOTAP, Boehlinger Mannheim) according to the manufacturer's instructions in Dulbecco's modified Eagle's medium (DMEM) with 10% delipidated hormone-depleted fetal calf serum. After about 2-3 hours, the cells are washed with DMEM and agonist (200 nM BRL 49653) and/or an appropriate test compound (LY 171883; see FIG. 1) is added to the media. After 24-48 hours of incubation, the cells are rinsed with phosphate buffered saline (pH 7.2) and lysed. Aliquots are assayed for luciferase and β-galactosidase activity. Luciferase activity is normalized to optical density units of β-galactosidase per minute of incubation.\nThus, CV-1 cells are co-transfected with CMX-GAL-PPARγ and pTK-MH100x4-LUC at a ratio of about 100 ng of receptor-encoding DNA per 10^5 cells. The usual amounts of DNA per 10^5 cells are 100 ng of CMX-GAL-PPARγ, 300 ng of pTK-MH100x4-LUC, and 500 ng of CMX-βGAL. Typically, transfections are performed in triplicate. The plates are then incubated for 2-3 hours at 37° C.\nThe cells are washed with fresh medium. […]\nThe data are expressed as relative light units (RLUs) per O.D. unit of β-galactosidase per minute. […]",
  "data": [
    {"smiles": "CCCc1c(OCCCCc2nnn[nH]2)ccc(C(C)=O)c1O", "note": "[LY 171883]", "values": [
      {"measurement": "relative reporter activity (functional activity at PPARγ)", "value": "functional antagonist of PPARγ"}
    ]}
  ]
}
